Results reported in ChEMBL document CHEMBL6083213, “Discovery of benzimidazole-2-amide BNZ-111 as new tubulin inhibitor” (Bioorg Med Chem Lett, 2024).
In brackets after ≈: the same amount, converted by molar mass. Activity calls are given as the source filed them. No cut-off for these calls is given here.

Legend:
[1] = AUC in Sprague-Dawley rat at 10 mg/kg, po; format: ADME, organism-based; conditions: in vivo
[2] = Clearance in Sprague-Dawley rat at 2 mg/kg, iv; format: ADME, organism-based; conditions: in vivo
[3] = Oral bioavailability in Sprague-Dawley rat at 10 mg/kg; format: ADME, organism-based; conditions: in vivo
A549 [4] = experiment: Anticancer activity against human A549 cells assessed as inhibition of cell growth at 1 uM incubated for 72 hrs by MTT assay relative to control; format: functional
[5] = Half life in Sprague-Dawley rat at 2 mg/kg, iv; format: ADME, organism-based; conditions: in vivo
NCI-H460 [6] = experiment: Anticancer activity against human NCI-H460 cells assessed as inhibition of cell growth at 1 uM incubated for 72 hrs by MTT assay relative to control; format: functional
NCI-H1299 [7] = experiment: Anticancer activity against human NCI-H1299 cells assessed as inhibition of cell growth at 1 uM incubated for 72 hrs by MTT assay relative to control; format: functional
[8] = Volume of distribution at steady state in Sprague-Dawley rat at 2 mg/kg, iv; format: ADME, organism-based; conditions: in vivo, read-out: Vdss
[9] = Cmax in Sprague-Dawley rat at 10 mg/kg, po; format: ADME, organism-based; conditions: in vivo
HEY A8 = experiment: Anticancer activity against human HEY A8 cells incubated for 24; format: functional, cell-based
[10] = Microsomal stability in rat liver microsomes assessed as parent compound remaining measured after 30 mins; format: ADME, Microsome; conditions: read-out: Stability
[11] = Cytotoxicity against human A2780/CP20 cells incubated for 24 hrs; format: toxicity, cell-based; conditions: a2780/cp20, 24 h
[12] = Microsomal stability in human liver microsomes assessed as parent compound remaining measured after 30 mins; format: ADME, Microsome; conditions: read-out: Stability
NIH3T3 = experiment: Cytotoxicity against mouse NIH3T3 cells incubated for 24 hrs; format: toxicity, cell-based; conditions: nih3t3, 24 h
A549 [13] = experiment: Anticancer activity against human A549 cells incubated for 24; format: functional, cell-based
[14] = Plasma protein binding in mouse; format: ADME, cell-free; conditions: read-out: PPB (converted)
hERG (KCNH2) = hERG (KCNH2) (Homo sapiens, UniProt Q12809); experiment: Inhibition of hERG at 10 uM relative to control; format: toxicity
hERG (KCNH2), sequence (Q12809 whole entry): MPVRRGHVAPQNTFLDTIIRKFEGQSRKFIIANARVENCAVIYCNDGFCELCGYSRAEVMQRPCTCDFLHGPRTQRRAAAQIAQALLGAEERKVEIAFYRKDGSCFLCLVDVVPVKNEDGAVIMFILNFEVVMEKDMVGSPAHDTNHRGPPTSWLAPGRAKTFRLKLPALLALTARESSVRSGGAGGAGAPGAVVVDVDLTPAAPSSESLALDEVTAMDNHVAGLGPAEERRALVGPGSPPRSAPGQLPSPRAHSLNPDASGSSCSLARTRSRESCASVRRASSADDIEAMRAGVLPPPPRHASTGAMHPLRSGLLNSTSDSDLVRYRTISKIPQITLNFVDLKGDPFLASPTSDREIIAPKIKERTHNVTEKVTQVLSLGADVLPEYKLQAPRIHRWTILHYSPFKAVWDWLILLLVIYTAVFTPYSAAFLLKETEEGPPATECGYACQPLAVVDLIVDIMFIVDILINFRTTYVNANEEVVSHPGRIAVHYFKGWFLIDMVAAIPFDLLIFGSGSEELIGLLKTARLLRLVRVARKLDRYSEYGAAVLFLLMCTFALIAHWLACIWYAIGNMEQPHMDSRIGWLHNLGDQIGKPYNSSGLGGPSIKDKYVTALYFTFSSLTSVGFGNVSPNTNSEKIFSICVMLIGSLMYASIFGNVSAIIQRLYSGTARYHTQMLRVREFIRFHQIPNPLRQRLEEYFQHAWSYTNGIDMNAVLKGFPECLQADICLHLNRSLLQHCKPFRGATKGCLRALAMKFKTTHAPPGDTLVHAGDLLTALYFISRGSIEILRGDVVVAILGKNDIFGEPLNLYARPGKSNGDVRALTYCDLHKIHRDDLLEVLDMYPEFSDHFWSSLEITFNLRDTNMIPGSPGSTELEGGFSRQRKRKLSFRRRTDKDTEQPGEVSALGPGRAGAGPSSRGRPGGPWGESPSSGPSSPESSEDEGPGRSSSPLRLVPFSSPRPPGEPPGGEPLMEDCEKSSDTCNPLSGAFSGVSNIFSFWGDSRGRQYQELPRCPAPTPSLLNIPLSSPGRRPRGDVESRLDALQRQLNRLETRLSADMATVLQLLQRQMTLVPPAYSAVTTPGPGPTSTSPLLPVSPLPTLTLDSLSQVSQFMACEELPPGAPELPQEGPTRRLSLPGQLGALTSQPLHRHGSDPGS

A2780 = experiment: Anticancer activity against human A2780 cells incubated for 24; format: functional, cell-based
Vero = experiment: Cytotoxicity against african green monkey Vero cells incubated for 24 hrs; format: toxicity, cell-based; conditions: chlorocebus sabaeus
[15] = Plasma protein binding in human; format: ADME, cell-free; conditions: read-out: PPB (converted)
[16] = Cytotoxicity against human SKOV3.ip1 cells incubated for 24 hrs; format: toxicity, cell-based; conditions: skov3.ip1, 24 h
[17] = Stability in mouse plasma assessed as parent compound remaining after 4 hrs; format: ADME, cell-free; conditions: read-out: Stability
[18] = Solubility of compound in 1 % DMSO-PBS buffer; format: physicochemical
HFL1 = experiment: Cytotoxicity against human HFL1 cells incubated for 24 hrs; format: toxicity, cell-based; conditions: hfl1, 24 h
[19] = Cytotoxicity against human HeyA8-MDR cells incubated for 24 hrs; format: toxicity, cell-based
HeyA8-MDR = experiment: Antitumor activity against human HeyA8-MDR cells xenografted in mouse assessed as tumor growth inhibition; format: functional, cell-based
NCI-H460 [20] = experiment: Anticancer activity against human NCI-H460 cells incubated for 24; format: functional, cell-based
[21] = Stability in human plasma assessed as parent compound remaining after 4 hrs; format: ADME, cell-free; conditions: read-out: Stability
CHO-K1 = experiment: Cytotoxicity against CHO-K1 cells incubated for 24 hrs; format: toxicity, cell-based, Cricetulus griseus; conditions: chinese hamster, cho-k1, 24 h
[22] = Microsomal stability in mouse liver microsomes assessed as parent compound remaining measured after 30 mins; format: ADME, Microsome; conditions: read-out: Stability
NCI-H1299 [23] = experiment: Anticancer activity against human NCI-H1299 cells incubated for 24; format: functional, cell-based
L929 = experiment: Cytotoxicity against mouse L929 cells incubated for 24 hrs; format: toxicity, cell-based; conditions: l929, 24 h
[24] = Cytotoxicity against human SKOV3/TR cells incubated for 24 hrs; format: toxicity, cell-based
[25] = Stability in rat plasma assessed as parent compound remaining after 4 hrs; format: ADME, cell-free; conditions: read-out: Stability

`CCCOc1ccc2nc(NC(=O)NC)[nH]c2c1` showed an AUC [1] of 590 ng·h/mL, a clearance [2] of 132 mL/min/kg and a bioavailability [3] of 44%. It also gave an inhibition at 1 µM (A549 [4]) of 59%, a half-life [5] of 0.25 h and an inhibition at 1 µM (NCI-H460 [6]) of 54%. The inhibition at 1 µM (NCI-H1299 [7]) was 65%, the Vd [8] was 2.8 L/kg and the Cmax [9] was 580 ng/mL.
`CCCOc1ccc2c(c1)nc(NC(=O)OC)n2C` showed an inhibition at 1 µM (A549 [4]) of 23%, an inhibition at 1 µM (NCI-H460 [6]) of 10% and an inhibition at 1 µM (NCI-H1299 [7]) of 31%.
In the case of `CCCOc1cc2[nH]c(NC(=O)CC)nc2cc1F`, the Activity (HEY A8) is reported as “Active”, the remaining at 0.5 h [10] is reported as 20% and the Activity [11] is reported as “Non-toxic”. For the same compound, the remaining at 0.5 h [12] was 29%, the Activity (NIH3T3) was “Non-toxic” and the AUC [1] was 2140 ng·h/mL. For the same compound, the Activity (A549 [13]) was “Active”, the fraction unbound [14] was 0.15 and the inhibition at 10 µM (hERG (KCNH2)) was 29%. For the same compound, the Activity (A2780) was “Active”, the Activity (Vero) was “Non-toxic” and the fraction unbound [15] was 0.17. For the same compound, the clearance [2] was 38.5 mL/min/kg, the Activity [16] was “Non-toxic” and the remaining at 4 h [17] was 95%. The solubility [18] was 53 µM (≈ 14.1 µg/mL), the Activity (HFL1) was “Non-toxic” and the Activity [19] was “Non-toxic”. For the same compound, the TGI (HeyA8-MDR) was “Active”, the bioavailability [3] was 50% and the Activity (NCI-H460 [20]) was “Active”. It also gave an inhibition at 1 µM (A549 [4]) of 64%, a half-life [5] of 0.3 h and a remaining at 4 h [21] of over 99%. It also gave an inhibition at 1 µM (NCI-H460 [6]) of 63%, an inhibition at 1 µM (NCI-H1299 [7]) of 62% and a Vd [8] of 0.6 L/kg. For the same compound, the Cmax [9] was 2760 ng/mL, the Activity (CHO-K1) was “Non-toxic” and the remaining at 0.5 h [22] was 2.6%. The Activity (NCI-H1299 [23]) was “Active”, the Activity (L929) was “Non-toxic” and the Activity [24] was “Non-toxic”. For the same compound, the remaining at 4 h [25] was 95%.
Compound `COC(=O)Nc1nc2ccc(OCCC(F)(F)F)cc2[nH]1` has an inhibition at 1 µM (A549 [4]) of 18%, an inhibition at 1 µM (NCI-H460 [6]) of 17% and an inhibition at 1 µM (NCI-H1299 [7]) of 24%.
With `CCCCc1ccc2[nH]c(NC(=O)OC)nc2c1` [PARBENDAZOLE] the inhibition at 1 µM (A549 [4]) was 47%, the inhibition at 1 µM (NCI-H460 [6]) was 27% and the inhibition at 1 µM (NCI-H1299 [7]) was 37%.
For `CC(=O)O[C@H]1C(=O)[C@@]2(C)[C@H]([C@H](OC(=O)c3ccccc3)[C@]3(O)C[C@H](OC(=O)[C@H](O)[C@@H](NC(=O)c4ccccc4)c4ccccc4)C(C)=C1C3(C)C)[C@]1(OC(C)=O)CO[C@@H]1C[C@@H]2O` [PACLITAXEL], the inhibition at 1 µM (A549 [4]) was 74%, the inhibition at 1 µM (NCI-H460 [6]) was 63% and the inhibition at 1 µM (NCI-H1299 [7]) was 73%.
With `COC(=O)Nc1nc2ccc(OCCCF)cc2[nH]1` the inhibition at 1 µM (A549 [4]) was 28%, the inhibition at 1 µM (NCI-H460 [6]) was 20% and the inhibition at 1 µM (NCI-H1299 [7]) was 25%.
In the case of `CCCCOc1ccc2nc(NC(=O)OC)[nH]c2c1`, the inhibition at 1 µM (A549 [4]) is reported as 30%, the inhibition at 1 µM (NCI-H460 [6]) is reported as 31% and the inhibition at 1 µM (NCI-H1299 [7]) is reported as 39%.
Work on `CCCOc1ccc2nc(N)[nH]c2c1` yielded an inhibition at 1 µM (A549 [4]) of 8%, an inhibition at 1 µM (NCI-H460 [6]) of 13% and an inhibition at 1 µM (NCI-H1299 [7]) of 24%.
For `CCOc1ccc2nc(NC(=O)OC)[nH]c2c1`, the inhibition at 1 µM (A549 [4]) was 25%, the inhibition at 1 µM (NCI-H460 [6]) was 27% and the inhibition at 1 µM (NCI-H1299 [7]) was 23%.
Compound `CCCOc1ccc2nc(N(C)C(=O)OC)[nH]c2c1` has an inhibition at 1 µM (A549 [4]) of 0%, an inhibition at 1 µM (NCI-H460 [6]) of 8% and an inhibition at 1 µM (NCI-H1299 [7]) of 22%.
`CCCOc1cc2[nH]c(NC(=O)CC)nc2cc1C` showed an inhibition at 1 µM (A549 [4]) of 34%, an inhibition at 1 µM (NCI-H460 [6]) of 40% and an inhibition at 1 µM (NCI-H1299 [7]) of 26%.
With `CCCOc1cc2[nH]c(NC(=O)CC)nc2cc1Cl` the inhibition at 1 µM (A549 [4]) was 58%, the inhibition at 1 µM (NCI-H460 [6]) was 60% and the inhibition at 1 µM (NCI-H1299 [7]) was 55%.
Compound `CCCOc1ccc2nc(NC(=O)OC)n(C)c2c1` has an inhibition at 1 µM (A549 [4]) of 10%, an inhibition at 1 µM (NCI-H460 [6]) of 10% and an inhibition at 1 µM (NCI-H1299 [7]) of 19%.
`COC(=O)Nc1nc2cc(Sc3ccccc3)ccc2[nH]1` [FENBENDAZOLE] showed an inhibition at 1 µM (A549 [4]) of 44%, an inhibition at 1 µM (NCI-H460 [6]) of 43% and an inhibition at 1 µM (NCI-H1299 [7]) of 59%.
Work on `CCCOc1ccc2nc(NC(=O)OC)[nH]c2c1` [OXIBENDAZOLE] yielded an AUC [1] of 10 ng·h/mL, a clearance [2] of 350 mL/min/kg and a bioavailability [3] of 2.6%. The inhibition at 1 µM (A549 [4]) was 58%, the half-life [5] was 27 h and the inhibition at 1 µM (NCI-H460 [6]) was 47%. For the same compound, the inhibition at 1 µM (NCI-H1299 [7]) was 65%, the Vd [8] was 413 L/kg and the Cmax [9] was 10 ng/mL.
Compound `CCCOc1ccc2nc(NS(=O)(=O)CC)[nH]c2c1` has an inhibition at 1 µM (A549 [4]) of 4%, an inhibition at 1 µM (NCI-H460 [6]) of 6% and an inhibition at 1 µM (NCI-H1299 [7]) of 9%.
`CCCOc1ccc2nc(NC(=O)CC)[nH]c2c1` gave an AUC [1] of 930 ng·h/mL, a clearance [2] of 45.5 mL/min/kg and a bioavailability [3] of 25%. It also gave an inhibition at 1 µM (A549 [4]) of 58%, a half-life [5] of 18.6 h and an inhibition at 1 µM (NCI-H460 [6]) of 46%. It also gave an inhibition at 1 µM (NCI-H1299 [7]) of 64%, a Vd [8] of 6.4 L/kg and a Cmax [9] of 1560 ng/mL.
In the case of `CCCOc1cc2[nH]c(NC(=O)CC)nc2cc1OC`, the inhibition at 1 µM (A549 [4]) is reported as 10%, the inhibition at 1 µM (NCI-H460 [6]) is reported as 14% and the inhibition at 1 µM (NCI-H1299 [7]) is reported as 11%.
Work on `COC(=O)Nc1nc2cc(C(=O)c3ccccc3)ccc2[nH]1` [MEBENDAZOLE] yielded an inhibition at 1 µM (A549 [4]) of 48%, an inhibition at 1 µM (NCI-H460 [6]) of 46% and an inhibition at 1 µM (NCI-H1299 [7]) of 52%.
